Laboratory results as given in paper PMC9530963, “A cathelicidin antimicrobial peptide from Hydrophis cyanocinctus inhibits Zika virus infection by downregulating expression of a viral entry factor” (The Journal of Biological Chemistry, 2022).

What was measured:
TIM-1 = TIM-1 level in Vero cells (Western blot); assay type: cell-based, Chlorocebus aethiops; conditions: 6, 12, and 24 h post Hc-CATH addition
Procedure: (§1) Figure 3 Hc-CATH downregulates AXL in Vero cell.A, schematic diagram of B and C. B, Vero cells were seeded in 24-well plates (5 × 10^4 cells/well) and cultured in DMEM containing 2% FBS. Hc-CATH (1.25, 2.5, and 5 μM), AC5 (2.5 μM), LL-37 (2.5 μM), or same volume of PBS (peptide solvent) was added to cells. After culture at 37 °C for 6, 12, and 24 h, the levels of ZIKV entry factors, including AXL, TYRO3, and TIM-1, were tested by Western blot, respectively. C, Vero cells were seeded in 8-well cover slip chambers (5 × 10^4 cells/well) and cultured in DMEM containing 2% FBS. Hc-CATH (1.25, 2.5, and 5 μM), AC5 (2.5 μM), LL-37 (2.5 μM), or same volume of PBS (peptide solvent) was added to cells. After culture at 37 °C for 24 h, the level of AXL was tested by immunofluorescence staining. The scale bar represents 50 μm. D, schematic diagram of E. E, Vero cells were seeded in 24-well plates (5 × 10^4 cells/well) and cultured in DMEM containing 2% FBS. Hc-CATH (1.25, 2.5, and 5 μM), AC5 (2.5 μM), LL-37 (2.5 μM), or same volume of PBS (peptide solvent) was added to cells and incubated at 37 °C for 2 h. […] Ratio of AXL to β-actin was analyzed by ImageJ.
(§2) Vero cells were incubated with Hc-CATH (1.25, 2.5, and 5 μM), AC5 (2.5 μM), LL-37 (2.5 μM), or PBS (solvent of peptide). […] The levels of ZIKV entry factors, including AXL, TYRO3, and TIM-1, were detected by WB analysis. […]

ZIKV [1] = assay: Susceptibility of U251 cells to ZIKV (peptide pretreatment); assay type: cell-based, ZIKV strain PRVABC59; conditions: 1.25, 2.5, and 5 μM, 2 h before ZIKV MOI = 1; 24 h; Western blot
Procedure: Figure 5 Hc-CATH downregulates AXL in U251 cell.A, schematic diagram of B and C. B, U251 cells were seeded in 24-well plates (5 × 10^4 cells/well) and cultured in DMEM containing 2% FBS. Hc-CATH (1.25, 2.5, and 5 μM) or same volume of PBS (peptide solvent) was added to cells and incubated at 37 °C for 24 h. The level of AXL was tested by Western blot. C, U251 cells were seeded in 8-well cover slip chambers (5 × 10^4 cells/well) and cultured in DMEM containing 2% FBS. Hc-CATH (1.25, 2.5, and 5 μM) or PBS was added to cells and incubated at 37 °C for 24 h. The level of AXL was tested by immunofluorescence staining. The scale bar represents 50 μm. D, schematic diagram of E–G. E–G, U251 cells were seeded in 24-well plates (5 × 10^4 cells/well) and cultured in DMEM containing 2% FBS. Hc-CATH (1.25, 2.5, and 5 μM) or PBS was added to cells and incubated at 37 °C for 2 h. Cells were washed with PBS and incubated with ZIKV (MOI = 1). After incubation at 37 °C for 2 h, cells were washed with PBS and cultured in DMEM containing 2% FBS.
Vero, A549, or U251 cells were incubated with peptide or PBS at 37 °C for 2 h. […]
The effect of Hc-CATH on AXL was further confirmed in A549 and U251 cells. A549 or U251 cells were incubated with Hc-CATH (1.25, 2.5, and 5 μM) or PBS at 37 °C for 24 h, and the level of AXL was detected by WB and IF, respectively. […]

AXL = AXL level in Vero cells (Western blot, immunofluorescence); assay type: cell-based, Chlorocebus aethiops
Procedure: as §1, §2

ZIKV [2] = assay: ZIKV replication stage, U251 cells (peptide added after infection); assay type: cell-based, ZIKV strain PRVABC59; conditions: 2.5 μM after ZIKV infection, 48 h; NS3 Western blot
Procedure: B–I, Vero (B–G), A549 (H), or U251 (I) cells were incubated with ZIKV (MOI = 1) at 37 °C for 2 h, washed with PBS, and transferred with fresh DMEM containing 2% FBS and Hc-CATH (2.5 μM), AC5 (2.5 μM), LL-37 (2.5 μM), or PBS (solvent of peptide). After culture at 37 °C for 48 h, intracellular ZIKV RNA (B), NS3 protein (C, D, H, and I), E protein level (E, the scale bar represents 50 μm), and extracellular ZIKV titer (F and G) were detected by qPCR, Western blot, immunofluorescence staining, and plaque-forming assay, respectively.
Vero cells were incubated with ZIKV (MOI = 1) at 37 °C for 2 h, washed three times with PBS, and transferred with fresh DMEM containing 2% FBS and Hc-CATH (2.5 μM), AC5 (2.5 μM), LL-37 (2.5 μM), or PBS. After culture at 37 °C for 48 h, intracellular ZIKV RNA, NS3 protein, E protein, and extracellular ZIKV titer were detected by qPCR, WB, IF, and plaque-forming assay, respectively. The effect of Hc-CATH on ZIKV replication stage was further tested in A549 and U251 cells under the same condition, and intracellular ZIKV NS3 protein was detected by WB.

KFFKRLLKSVRRAVKKFRKKPRLIGLSTLL [Hc-CATH, cathelicidin antimicrobial peptide identified from the sea snake Hydrophis cyanocinctus]
level of TIM-1 in Vero cells (TIM-1): did not obviously influence | susceptibility of U251 cells to ZIKV (NS3 protein) (ZIKV [1]): decreased the susceptibility | level of AXL in Vero cells (AXL; 1.25, 2.5, and 5 μM, 24 h, confirmed by immunofluorescence, relative to PBS): reduced the level of AXL | level of AXL in Vero cells upon ZIKV infection (AXL; peptide 2 h, then ZIKV MOI = 1, 24 h post Hc-CATH addition): decreased the level of AXL | ZIKV infection in U251 cells, peptide added after infection (ZIKV [2]): did not inhibit ZIKV infection
